Legend:
MDA-MB-231 [1] = assay: cells; details: Homo sapiens, MDA-MB-231, 72 h, read-out: IC50 MDA-MB-231
HepG2 [2] = assay: cells; details: Homo sapiens, HepG2, 72 h, read-out: IC50 HepG2
MDA-MB-231 [3] = details: IC50 on LLC-PK1 divided by IC50 on MDA-MB-231
HepG2 [4] = details: IC50 on LLC-PK1 divided by IC50 on HepG2
porcine brain tubulin = porcine brain tubulin (Sus scrofa, UniProt P02550+P02554); assay: biochemical; details: read-out: % inhibition of tubulin polymerization
Sequence of porcine brain tubulin (P02550 whole entry): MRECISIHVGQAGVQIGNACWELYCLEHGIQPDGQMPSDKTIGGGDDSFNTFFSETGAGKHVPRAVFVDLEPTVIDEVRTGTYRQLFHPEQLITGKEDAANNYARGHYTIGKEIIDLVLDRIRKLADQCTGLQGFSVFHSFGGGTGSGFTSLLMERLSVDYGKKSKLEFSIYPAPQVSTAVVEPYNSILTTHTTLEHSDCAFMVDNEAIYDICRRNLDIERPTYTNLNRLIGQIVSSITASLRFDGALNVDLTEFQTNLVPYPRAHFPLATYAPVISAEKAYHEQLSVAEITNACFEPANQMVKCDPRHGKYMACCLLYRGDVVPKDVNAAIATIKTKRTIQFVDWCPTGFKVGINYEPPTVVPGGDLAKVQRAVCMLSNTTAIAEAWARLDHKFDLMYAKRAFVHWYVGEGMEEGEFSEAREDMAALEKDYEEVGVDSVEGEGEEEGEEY
Sequence of porcine brain tubulin (P02554 whole entry): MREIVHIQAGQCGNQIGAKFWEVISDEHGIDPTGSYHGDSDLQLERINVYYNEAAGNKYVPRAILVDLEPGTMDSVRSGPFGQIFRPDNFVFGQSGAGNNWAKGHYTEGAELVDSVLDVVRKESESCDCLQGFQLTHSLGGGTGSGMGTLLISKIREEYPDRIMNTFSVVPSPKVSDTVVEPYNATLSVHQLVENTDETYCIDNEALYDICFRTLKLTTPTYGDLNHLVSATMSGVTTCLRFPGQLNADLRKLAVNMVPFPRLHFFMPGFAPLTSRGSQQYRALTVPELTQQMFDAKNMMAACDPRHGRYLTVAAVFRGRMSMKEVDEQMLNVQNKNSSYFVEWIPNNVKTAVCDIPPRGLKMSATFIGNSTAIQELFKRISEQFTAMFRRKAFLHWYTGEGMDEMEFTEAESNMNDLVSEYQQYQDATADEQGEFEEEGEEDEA

Work on `CCOc1cc(/C=C/C(=O)/C=C/c2c(C)nn(-c3cccc([N+](=O)[O-])c3)c2Cl)ccc1O` [Compound 8e, (1E,4E)-1-[5-Chloro-3-methyl-1-(3-nitrophenyl)-1H-pyrazol-4-yl]-5-(4-hydroxy-3-ethoxyphenyl)penta-1,4-dien-3-one] yielded an IC50 (MDA-MB-231 [1]) of 15.1 ± 0.2 µM and an IC50 (HepG2 [2]) of 11.18 ± 0.04 µM.

For `COc1cc(/C=C/C(=O)/C=C/c2c(C)nn(-c3cccc([N+](=O)[O-])c3)c2Cl)cc(OC)c1OC` [Compound 8g, (1E,4E)-1-(5-Chloro-3-methyl-1-(3-nitrophenyl)-1H-pyrazol-4-yl)-5-(3,4,5-trimethoxyphenyl)penta-1,4-dien-3-one], the IC50 (MDA-MB-231 [1]) was 2.43 ± 0.04 µM, the “SI MDA-MB-231” value (MDA-MB-231 [3]) was 2.44 and the “SI HepG2” value (HepG2 [4]) was 0.40. It also gave an IC50 (HepG2 [2]) of 14.65 ± 0.1 µM.

`COc1ccc(/C=C/C(=O)/C=C/c2cn(-c3ccccc3)nc2-c2ccccc2)cc1OC` [Compound 10a, (1E,4E)-1-(3,4-Dimethoxyphenyl)-5-(1,3-diphenyl-1H-pyrazol-4-yl)penta-1,4-dien-3-one] gave an IC50 (MDA-MB-231 [1]) of 23.3 ± 2.37 µM and an IC50 (HepG2 [2]) greater than 25 µM.

`COc1ccc(/C=C/C(=O)/C=C/c2cn(-c3ccccc3)nc2-c2ccccc2)c(OC)c1` [Compound 10b, (1E,4E)-1-(2,4-Dimethoxyphenyl)-5-(1,3-diphenyl-1H-pyrazol-4-yl)penta-1,4-dien-3-one] showed an IC50 (MDA-MB-231 [1]) greater than 25 µM and an IC50 (HepG2 [2]) greater than 25 µM.

`CCOc1cc(/C=C/C(=O)/C=C/c2c(C)nn(-c3ccccc3)c2Cl)ccc1O` [Compound 7e, (1E,4E)-1-(5-Chloro-3-methyl-1-phenyl-1H-pyrazol-4-yl)-5-(4-hydroxy-3-ethoxyphenyl)penta-1,4-dien-3-one] was tested, and the IC50 (MDA-MB-231 [1]) was 13.5 ± 1.43 µM and the IC50 (HepG2 [2]) was 13.2 ± 1.41 µM.

For `COc1cc(/C=C/C(=O)/C=C/c2cn(-c3ccccc3)nc2-c2ccccc2)cc(OC)c1O` [Compound 10h, (1E,4E)-1-(1,3-Diphenyl-1H-pyrazol-4-yl)-5-(4-hydroxy-3,5-dimethoxyphenyl)penta-1,4-dien-3-one], the IC50 (MDA-MB-231 [1]) was 4.06 ± 0.02 µM, the “SI MDA-MB-231” value (MDA-MB-231 [3]) was 2.51 and the inhibition at 20 µM (porcine brain tubulin) was 25.73 ± 0.15%. For the same compound, the “SI HepG2” value (HepG2 [4]) was 2.05 and the IC50 (HepG2 [2]) was 4.98 ± 0.09 µM.

With `COc1cc(/C=C/C(=O)CC(=O)/C=C/c2ccc(O)c(OC)c2)ccc1O` [curcumin, reference compound] the IC50 (MDA-MB-231 [1]) was 20.7 ± 0.8 µM, the “SI MDA-MB-231” value (MDA-MB-231 [3]) was 1.72 and the “SI HepG2” value (HepG2 [4]) was 1.51. For the same compound, the IC50 (HepG2 [2]) was 23.4 ± 7.27 µM.

Work on `COc1ccc(/C=C/C(=O)/C=C/c2c(C)nn(-c3cccc([N+](=O)[O-])c3)c2Cl)c(OC)c1` [Compound 8b, (1E,4E)-1-[5-Chloro-3-methyl-1-(3-nitrophenyl)-1H-pyrazol-4-yl]-5-(2,4-dimethoxyphenyl)penta-1,4-dien-3-one] yielded an IC50 (MDA-MB-231 [1]) of 12.3 ± 1.29 µM and an IC50 (HepG2 [2]) of 18.3 ± 3.14 µM.

`COc1cc(/C=C/C(=O)/C=C/c2c(C)nn(-c3cccc([N+](=O)[O-])c3)c2Cl)ccc1O` [Compound 8c, (1E,4E)-1-[5-Chloro-3-methyl-1-(3-nitrophenyl)-1H-pyrazol-4-yl]-5-(4-hydroxy-3-methoxyphenyl)penta-1,4-dien-3-one] gave an IC50 (MDA-MB-231 [1]) of 7 ± 0.02 µM and an IC50 (HepG2 [2]) of 16.6 ± 0.45 µM.

Compound `COc1cc(/C=C/C(=O)/C=C/c2cn(-c3ccccc3)nc2-c2ccccc2)cc(OC)c1OC` [Compound 10g, (1E,4E)-1-(1,3-Diphenyl-1H-pyrazol-4-yl)-5-(3,4,5-trimethoxyphenyl)penta-1,4-dien-3-one] has an IC50 (MDA-MB-231 [1]) of 14.3 ± 0.37 µM and an IC50 (HepG2 [2]) greater than 25 µM.

`CCOc1cc(/C=C/C(=O)/C=C/c2cn(-c3ccccc3)nc2-c2ccccc2)ccc1O` [Compound 10e, (1E,4E)-1-(1,3-Diphenyl-1H-pyrazol-4-yl)-5-(4-hydroxy-3-ethoxyphenyl)penta-1,4-dien-3-one] gave an IC50 (MDA-MB-231 [1]) of 6.14 ± 0.33 µM and an IC50 (HepG2 [2]) of 13.5 ± 1.53 µM.

In the case of `COc1cc(/C=C/C(=O)/C=C/c2c(C)nn(-c3cccc([N+](=O)[O-])c3)c2Cl)cc(OC)c1O` [Compound 8h, (1E,4E)-1-(5-Chloro-3-methyl-1-(3-nitrophenyl)-1H-pyrazol-4-yl)-5-(4-hydroxy-3,5-dimethoxyphenyl)penta-1,4-dien-3-one], the IC50 (MDA-MB-231 [1]) is reported as 2.56 ± 0.01 µM, the “SI MDA-MB-231” value (MDA-MB-231 [3]) is reported as 6.01 and the inhibition at 20 µM (porcine brain tubulin) is reported as 22.1 ± 0.84%. For the same compound, the “SI HepG2” value (HepG2 [4]) was 2.30 and the IC50 (HepG2 [2]) was 6.69 ± 0.04 µM.

`Cc1nn(-c2ccccc2)c(Cl)c1/C=C/C(=O)/C=C/c1ccc2c(c1)OCO2` [Compound 7f, (1E,4E)-1-(Benzo[d][1,3]dioxol-5-yl)-5-(5-chloro-3-methyl-1-phenyl-1H-pyrazol-4-yl)penta-1,4-dien-3-one] was tested, and the IC50 (MDA-MB-231 [1]) was 16.67 ± 0.07 µM and the IC50 (HepG2 [2]) was greater than 25 µM.

`COc1cc(/C=C/C(=O)/C=C/c2c(C)nn(-c3ccccc3)c2Cl)ccc1O` [Compound 7c, (1E,4E)-1-(5-Chloro-3-methyl-1-phenyl-1H-pyrazol-4-yl)-5-(4-hydroxy-3-methoxyphenyl)penta-1,4-dien-3-one] was tested, and the IC50 (MDA-MB-231 [1]) was 7.71 ± 0.32 µM, the “SI MDA-MB-231” value (MDA-MB-231 [3]) was 1.24 and the “SI HepG2” value (HepG2 [4]) was 1.19. It also gave an IC50 (HepG2 [2]) of 8 ± 0.87 µM.

For `Cc1nn(-c2cccc([N+](=O)[O-])c2)c(Cl)c1/C=C/C(=O)/C=C/c1ccc2c(c1)OCO2` [Compound 8f, (1E,4E)-1-(Benzo[d][1,3]dioxol-5-yl)-5-(5-chloro-3-methyl-1-(3-nitrophenyl)-1H-pyrazol-4-yl)penta-1,4-dien-3-one], the IC50 (MDA-MB-231 [1]) was greater than 25 µM and the IC50 (HepG2 [2]) was greater than 25 µM.

For `COc1ccc(/C=C/C(=O)/C=C/c2c(C)nn(-c3cccc([N+](=O)[O-])c3)c2Cl)cc1OC` [Compound 8a, (1E,4E)-1-[5-Chloro-3-methyl-1-(3-nitrophenyl)-1H-pyrazol-4-yl]-5-(3,4-dimethoxyphenyl)penta-1,4-dien-3-one], the IC50 (MDA-MB-231 [1]) was 6.89 ± 0.31 µM, the “SI MDA-MB-231” value (MDA-MB-231 [3]) was 3.05 and the inhibition at 20 µM (porcine brain tubulin) was 25.9 ± 0.33%. For the same compound, the “SI HepG2” value (HepG2 [4]) was 2.93 and the IC50 (HepG2 [2]) was 7.19 ± 0.37 µM.

For `O=C(/C=C/c1ccc2c(c1)OCO2)/C=C/c1cn(-c2ccccc2)nc1-c1ccccc1` [Compound 10f, (1E,4E)-1-(Benzo[d][1,3]dioxol-5-yl)-5-(1,3-diphenyl-1H-pyrazol-4-yl)penta-1,4-dien-3-one], the IC50 (MDA-MB-231 [1]) was 22 ± 3.24 µM and the IC50 (HepG2 [2]) was greater than 25 µM.

`COc1cc(/C=C/C(=O)/C=C/c2cn(-c3ccccc3)nc2-c2ccccc2)ccc1O` [Compound 10c, (1E,4E)-1-(1,3-Diphenyl-1H-pyrazol-4-yl)-5-(4-hydroxy-3-methoxyphenyl)penta-1,4-dien-3-one] was tested, and the IC50 (MDA-MB-231 [1]) was 5.5 ± 0.22 µM, the inhibition at 20 µM (porcine brain tubulin) was 40.76 ± 0.33% and the “SI HepG2” value (HepG2 [4]) was 1.49. For the same compound, the IC50 (HepG2 [2]) was 10.6 ± 1.38 µM.

In the case of `COc1ccc(/C=C/C(=O)/C=C/c2c(C)nn(-c3ccccc3)c2Cl)cc1OC` [Compound 7a, (1E,4E)-1-(5-Chloro-3-methyl-1-phenyl-1H-pyrazol-4-yl)-5-(3,4-dimethoxyphenyl)penta-1,4-dien-3-one], the IC50 (MDA-MB-231 [1]) is reported as 6.6 ± 0.16 µM and the IC50 (HepG2 [2]) is reported as 11.6 ± 1.2 µM.

For `COc1ccc(/C=C/C(=O)/C=C/c2c(C)nn(-c3ccccc3)c2Cl)cc1O` [Compound 7d, (1E,4E)-1-(5-Chloro-3-methyl-1-phenyl-1H-pyrazol-4-yl)-5-(3-hydroxy-4-methoxyphenyl)penta-1,4-dien-3-one], the IC50 (MDA-MB-231 [1]) was 5.61 ± 0.24 µM, the inhibition at 20 µM (porcine brain tubulin) was 52 ± 0.65% and the “SI HepG2” value (HepG2 [4]) was 1.14. For the same compound, the IC50 (HepG2 [2]) was 14.2 ± 0.77 µM.

For `COc1cc(/C=C/C(=O)/C=C/c2c(C)nn(-c3ccccc3)c2Cl)cc(OC)c1O` [Compound 7h, (1E,4E)-1-(5-Chloro-3-methyl-1-phenyl-1H-pyrazol-4-yl)-5-(4-hydroxy-3,5-dimethoxyphenyl)penta-1,4-dien-3-one], the IC50 (MDA-MB-231 [1]) was 3.64 ± 0.02 µM, the inhibition at 20 µM (porcine brain tubulin) was 45.3 ± 0.81% and the “SI HepG2” value (HepG2 [4]) was 2.14. It also gave an IC50 (HepG2 [2]) of 6.03 ± 0.06 µM.

For `COc1ccc(/C=C/C(=O)/C=C/c2c(C)nn(-c3ccccc3)c2Cl)c(OC)c1` [Compound 7b, (1E,4E)-1-(5-Chloro-3-methyl-1-phenyl-1H-pyrazol-4-yl)-5-(2,4-dimethoxyphenyl)penta-1,4-dien-3-one], the IC50 (MDA-MB-231 [1]) was 13.3 ± 0.39 µM and the IC50 (HepG2 [2]) was greater than 25 µM.

For `COc1ccc(/C=C/C(=O)/C=C/c2cn(-c3ccccc3)nc2-c2ccccc2)cc1O` [Compound 10d, (1E,4E)-1-(1,3-Diphenyl-1H-pyrazol-4-yl)-5-(3-hydroxy-4-methoxyphenyl)penta-1,4-dien-3-one], the IC50 (MDA-MB-231 [1]) was 3.29 ± 0.18 µM, the “SI MDA-MB-231” value (MDA-MB-231 [3]) was 2.55 and the inhibition at 20 µM (porcine brain tubulin) was 35.5 ± 0.51%. For the same compound, the “SI HepG2” value (HepG2 [4]) was 1.25 and the IC50 (HepG2 [2]) was 6.74 ± 0.26 µM.

Work on `CC(=O)O[C@H]1C(=O)[C@@]2(C)[C@H]([C@H](OC(=O)c3ccccc3)[C@]3(O)C[C@H](OC(=O)[C@H](O)[C@@H](NC(=O)c4ccccc4)c4ccccc4)C(C)=C1C3(C)C)[C@]1(OC(C)=O)CO[C@@H]1C[C@@H]2O` [paclitaxel, reference compound] yielded an IC50 (MDA-MB-231 [1]) of 8.79 ± 0.96 µM and an IC50 (HepG2 [2]) of 12 ± 0.56 µM.

With `COc1cc(/C=C/C(=O)/C=C/c2c(C)nn(-c3ccccc3)c2Cl)cc(OC)c1OC` [Compound 7g, (1E,4E)-1-(5-Chloro-3-methyl-1-phenyl-1H-pyrazol-4-yl)-5-(3,4,5-trimethoxyphenyl)penta-1,4-dien-3-one] the IC50 (MDA-MB-231 [1]) was 7.84 ± 0.07 µM and the IC50 (HepG2 [2]) was 13.03 ± 0.12 µM.

Work on `COc1ccc(/C=C/C(=O)/C=C/c2c(C)nn(-c3cccc([N+](=O)[O-])c3)c2Cl)cc1O` [Compound 8d, (1E,4E)-1-[5-Chloro-3-methyl-1-(3-nitrophenyl)-1H-pyrazol-4-yl]-5-(3-hydroxy-4-methoxyphenyl)penta-1,4-dien-3-one] yielded an IC50 (MDA-MB-231 [1]) of 7.25 ± 0.08 µM and an IC50 (HepG2 [2]) of 25.3 ± 0.3 µM.
